The record followed here is US20100217003A1, “1,2,3,4-TETRAHYDROISOQUINOLINE DERIVATIVES HAVING EFFECTS OF PREVENTING AND TREATING DEGENERATIVE AND INFLAMMATORY DISEASES” (priority 2006, published 2010).

Data set [1] has as its system BV-2 cell. The data set can be described thus: Production of NADPH oxidase-derived superoxide in LPS-stimulated BV-2 cells (WST-1). It is filed as cell-based, mouse. As to the method:
Measurement of Superoxide Production
BV-2 microglial cells were planted in a 96-well Petri dish at 0.5×10^5 cells/ml. After a 24-hour culture, the cells were washed twice with Hank's balanced salt solution (HBSS) without phenol red and treated with EHMTIQ (11a) and WST-1. However, some samples were not treated with 20 ? superoxide dismutase (SOD; 800 UI/ml). All samples were incubaed at 37° C. for 10 minutes. The absorbance of a sample was read at 450 nm using a SpectraMax Plus microplate spectrophotometer. The yield of superoxide was calculated according to difference in absorbance value between the samples with and without SOD.
The activation of a microglial cell led to the activation of NADPH oxidase and the production of superoxide. Accordingly, the assay was performed to determine whether EHMTIQ (11a) affects production of NADPH oxidase-derived superoxide. The LPS-stimulated BV-2 cell samples were treated with various concentrations of EHMTIQ (11a) and then the level of released superoxide was measured. The results are illustrated in FIG. 2.

Data set [2] deals with BV-2 cell. The data set can be described thus: Cytotoxicity of single treatment in BV-2 cells. It is filed as cell-based, mouse. The settings on record: single treatment (not illustrated).
Data set [3] has as its system mouse model of Parkinson's disease induced by MPTP. The data set can be described thus: Mouse model of Parkinson's disease induced by MPTP (immunostaining of substantia nigra and striatum). Type of data set: in vivo.
For the next data set, the system named is NF-kB p65. Put plainly: NF-kB p65 shift to nucleus in LPS-treated cells (Western blot). Type of data set: cell-based, mouse. Particulars: 10 (unit as image). Here is the method: Assay for NF-kB p65 Shift to Nucleus
The cells were washed with cold phosphate buffered saline (PBS) and gently suspended in 400 ? buffer solution containing 10 mM HEPES (pH 7.9), 10 mM KCl, 0.1 mM EDTA, 0.1 mM EGTA, 1 mM DTT and 0.5 mM PMSF. The cell suspension was placed on ice for 15 minutes, and reacted with 25 ? NP-40 (0.5%) for 10 seconds. Cen-trifugation for 30 seconds yielded nuclear pellets, which were then resuspended in 50 ? of cold PBS containing 20 mM HEPES (pH 7.9), 400 mM NaCl, and 1 mM each of DTT, EDTA, EGTA and PMSF. The suspension was vortexted for 15 minutes. The nuclear extract was centrifuged at 11,000×g for 15 minutes to get supernatant solution, whose protein content was measured. Equal amounts of the cell extract (5 ? ) were subjected to electrophoresis in a 10% SDS-polyacrylamide gel and then transferred onto a polyvinylidene difluoride-nitrocellulose membrane. The membrane was blocked with TBST containing 8% skim milk at RT for one hour, incubated with primary antibody, anti-NF-kB p65 antibody (1:500 dilution), at 4° C. overnight, and further incubated with secondary antibody conjugated with horseradish peroxidase for one more hour. Protein bands were detected by a chemiluminescence detection method according to the manufacturer's indication.
A transcription factor, NF-kB, shifts into a nucleus to regulate expression of several inflammatory genes. […]
In general terms: A western blot detects proteins with antibodies after separation by electrophoresis.

The subject of the next data set is SK-N-BE(2)C cells. Put plainly: Protective effect against neuron death due to substances released from activated microglial cells (LDH). The settings on record: culture medium from 50 EHMTIQ + LPS-treated BV-2 cells. It is filed as cell-based. Here is the method: Measurement of Lactate Dehydrogenase (LDH) Activity
0.26 mM NADH, 2.87 mM sodium pyruvate and 100 mM potassium phosphate buffer (pH 7.4) were added to cell culture medium (50 ? ) to make a total volume of 200 ? , and then cultured at RT. The resultant NAD^+ was measured at 340 nm for 5 minutes at 2-second intervals using a microplate spectrophotometer (SPECTRA MAX 340 pc; Molecular Devices, Menlo Park, Calif., USA).
BV-2 microglial cells were planted in a 24-well Petri dish at a density of 2.5×10^5 cells/ml. After an overnight culture, the cells were treated with […] lipopolysaccharide and EHMTIQ (11a) and then cultured for 12 more hours. At the same time, SK-N-BE(2)C cells were planted in a 24-well Petri dish at 0.5×10^5 cells/ml and cultured for 24 hours. The culture medium for SK-N-BE(2) C cells was removed and the culture medium for BV-2 was added thereto. After 24 hours, the death rate of SK-N-BE(2)C cells was measured using LDH.
The assay was performed to determine whether EHMTIQ (11a) protects a dopaminergic cell from injuries due to inflammatory substances released from an activated microglial cell. SK-N-BE(2)C cells were transferred to a culture medium containing substances released from LPS-stimulated BV-2 cells, and the cell death rate was measured by activity of LDH contained in the culture medium and compared with that in the EHMTIQ (11a)-treated BV-2 culture medium.

A short description of data set [4]: Drug stability against liver microsomal enzymes. Type of data set: in vitro ADME, rat. As to the method:
Evaluation for Drug Stability
1 mM EHMTIQ (11a) was added to 1 mg samples of white rat liver microsomes, and the samples were incubated at 37° C. for 0, 30, 120 and 240 minutes in the presence of a NADPH-regeneration system (2.6 mM β-NADP^+, 10 mM glucose-6-phosphate, 4 UI/ml glucose-6-phosphate dehydrogenase and 10 mM MgCl2). Perchloric acid was added to the sample to make a final concentration of 500 mM and then the reaction was stopped. The reaction mixture was centrifuged at 16,000×g for 20 minutes. The supernatant solution (120 l) was purified using a Waters HPLC system [717 plus autosampler, 515 pump, and Symmetry C18 column (4.6 mm×150 mm, […])] using a 5-30% linear gradient of acetonitrile as mobile phase. EHMTIQ (11a) was detected at 254 nm using a Waters 486 UV detector and analyzed using EMPOWER software (Millipore Corporation, Milford, Mass., USA).
Since almost all micromolecules are degraded by enzymes in the liver, the stability of a medicine to these enzymes is very important. To evaluate bioavailability of EHMTIQ (11a) in vivo, the degradation rate of EHMTIQ (11a) by liver microsomal enzyme was measured, and neutralized to remaining EHMTIQ after exposure to liver microsomes.

For `CCC(=O)N1CCc2cc(OC)c(O)cc2C1` [EHMTIQ (11a), 2-ethylcarbonyl-7-hydroxy-6-methoxy-1,2,3,4-tetrahydroisoquinoline], the superoxide production in the data set with BV-2 cell [1] (5 (unit as image)) was 62±3.1%; in the data set with BV-2 cell [1] (10 (unit as image)), 65±3.1%. Further, in the data set on BV-2 cell [2], the cytotoxicity entry is recorded as “did not exhibit any cytotoxicity”. The “activation of microglial cells in the substantia nigra (Iba-1 immunostaining)” value in data set [3] (MPTP mouse (FIG. 13)) is “inhibitory effect”. For the same molecule, the “dopaminergic neurons in the substantia nigra (TH immunostaining)” value in data set [3] (MPTP mouse (FIG. 14)) is recorded as “protective effect”. In data set [3] (MPTP mouse (FIG. 14, right panels)), the “degeneration of dopaminergic neurons in the substantia nigra (fluoroJade C and TH double labelling)” value is reported as “inhibitory effect”. For the same molecule, the “dopamine nerve terminals in the striatum (TH immunostaining)” value in data set [3] (MPTP mouse (FIG. 15)) is “protective effect”. Besides, the “NF-kB p65 in nuclear fraction” value with NF-kB p65 is reported as “completely inhibited”. Also, the “cell injury rate of SK-N-BE(2)C cells” value in the data set with SK-N-BE(2)C cells is “reduced”. In addition, the EHMTIQ degraded entry in data set [4] (2-hour exposure to liver microsomes) is “about 12.52%”. Moreover, in data set [4] (30-minute exposure to liver microsomes), the EHMTIQ remained was roughly 95%. The “degeneration rate of EHMTIQ” value in data set [4] (liver microsomes, NADPH-regeneration system) is listed as 1.115±0.203 nmole (EHMTIQ)/min/mg (liver microsomal protein).
